Data: paper PMC2753751 (Bioorganic & medicinal chemistry letters, 2009)

How the values were obtained:
[1] = test system: A549 human lung carcinoma cell line; assay: cytotoxicity with A549 cell monolayers; format: cell-based
[2] = test system: Pneumocystis carinii; conditions: read-out: IC50 P. carinii; P. carinii obtained from rat lungs; ref [15]; cited from earlier work
[3] = test system: Pneumocystis carinii; assay: in vitro inhibition of Pneumocystis carinii; format: cell-based; conditions: ratio of cytotoxic A549 IC50 to P. carinii IC50
[4] = test system: Trypanosoma brucei rhodesiense KETRI 243; assay: in vitro inhibition of Trypanosoma brucei rhodesiense; format: cell-based; conditions: T.b. rhodesiense KETRI 243 versus T.b. brucei LAB 110
[5] = test system: Pneumocystis; conditions: immunosuppressed mouse, 20 mg/kg and 40 mg/kg doses; ref [1]; cited from earlier work

Row | Compound | cytotoxicity against the A549 cell line (in words) [1] | IC50 [2] | other results
1 | N=C(N)c1ccc(NC(=O)CCCCC(=O)Nc2cccc(C(=N)N)c2)cc1 [Compound 8] | very low cytoxicity | – | –
2 | N=C(N)c1ccc(NC(=O)CCCCCC(=O)Nc2ccc(C(=N)N)cc2)cc1 [Compound 9] | very low cytoxicity | – | –
3 | N=C(N)c1ccc(NC(=O)CCCCCCC(=O)Nc2ccc(C(=N)N)cc2)cc1 [Compound 10] | very low cytoxicity | – | –
4 | N=C(N)c1ccc(NC(=O)CCCCCCCCC(=O)Nc2ccc(C(=N)N)cc2)cc1 [Compound 12] | very low cytoxicity | – | –
5 | N=C(N)c1ccc(OCCCCCOc2ccc(C(=N)N)cc2)cc1 [Pentamidine, reference compound] | – | 0.5 µM | –
6 | N,N′-bis[4-(aminoiminomethyl)phenyl] hexanediamide [Compound 4] | – | 0.002 µM | selectivity index for P. carinii (SIP.c) [3]: 596,500; IC50 [1]: 1190 µM
7 | N,N′-bis[4-(aminoiminomethyl)phenyl] pentanediamide, dihydrochloride salt [Compound 2] | very low cytoxicity | 0.003 µM | fold less active against the resistant strain [4]: about 11 fold; selectivity index for P. carinii (SIP.c) [3]: 758,667; reductions in organism burden [5]: > 1,000 fold
